Activity calls are given as the source filed them.

The subject of assay [1] is HEK293. Nature of the assay: cells. Format: functional, cell-based. To be noted: Homo sapiens.
The target of assay [2] is T1, Nuclear receptor subfamily 0 group B member 1 (Homo sapiens, UniProt P51843).
T1 sequence (P51843 whole entry): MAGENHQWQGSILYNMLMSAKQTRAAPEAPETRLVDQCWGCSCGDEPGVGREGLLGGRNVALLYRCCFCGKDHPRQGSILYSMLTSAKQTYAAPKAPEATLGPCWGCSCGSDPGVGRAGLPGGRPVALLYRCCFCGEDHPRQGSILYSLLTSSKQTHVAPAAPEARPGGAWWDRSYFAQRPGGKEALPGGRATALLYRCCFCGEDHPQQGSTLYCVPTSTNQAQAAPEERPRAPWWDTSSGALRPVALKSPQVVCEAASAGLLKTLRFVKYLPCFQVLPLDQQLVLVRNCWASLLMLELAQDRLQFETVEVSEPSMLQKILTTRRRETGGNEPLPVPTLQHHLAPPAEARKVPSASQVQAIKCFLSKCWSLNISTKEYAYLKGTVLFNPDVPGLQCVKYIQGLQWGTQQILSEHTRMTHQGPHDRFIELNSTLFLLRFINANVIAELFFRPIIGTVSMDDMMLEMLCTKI
Nature of the assay: Luminescence-based cell-based high throughput dose response assay for inhibitors of the orphan nuclear receptor subfamily 0, group B, member 1 (DAX1; NR0B1). [Related pubchem assays (depositor defined):AID504766, AID504790]. Format: functional.

Assay [3] in a line: Luminescence Cell-Based Dose Confirmation HTS to Identify Activators of 5'UTR Stem-Loop Driven Alpha-Synuclein mRNA Translation in H4 Neuroglioblastoma Cells. [Related pubchem assays: 1829 (Project Summary), 1814 (Primary HTS)]. Format: functional.
A short description of assay [4]: Luminescence Cell-Based Dose Response HTS to Identify Activators of Luciferase Translation or Activity in H4 […] Cells. [Related pubchem assays: 1829 (Project Summary), 1814 (Primary HTS)]. Format: functional.
The nature of assay [5]: cells. Format: functional, cell-based.
A further assay concerns H4. Nature of the assay: Luminescence Cell-Based Dose Response HTS to Identify Activators of 5'UTR Stem-Loop Driven Prion Protein mRNA Translation in H4 Neuroglioblastoma Cells. [Related pubchem assays: 1829 (Project Summary), 1814 (Primary HTS)]. Type of assay: functional. To be noted: Homo sapiens.
Assay [6] in a line: cells. Type of assay: functional, cell-based. This is another data set of the same source.
Assay [7] has as its target Luciferin 4-monooxygenase (Photinus pyralis, UniProt P08659). Nature of the assay: Counter Screen for Luciferase-based Assay Positives. [Related pubchem assays: 620, 618, 411 ].
The subject of another assay is HT-1080. Nature of the assay: cytotoxicity in HT1080 fibrosarcoma cells, cell-based, fluorescence readout (AID 620). Format: functional. The settings on record: Homo sapiens.
The target of assay [8] is DNA dC->dU-editing enzyme APOBEC-3A (Homo sapiens, UniProt P31941). Nature of the assay: Dose Response confirmation of small molecule APOBEC3A DNA Deaminase Inhibitors via a fluorescence-based single-stranded DNA deaminase assay. [Related pubchem assays (depositor defined):AID493011, AID493024]. Format: functional.
Assay [9] has as its target DNA dC->dU-editing enzyme APOBEC-3G (Homo sapiens, UniProt Q9HC16). Format: functional.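 Further: Dose-response counterscreen measuring inhibition of APOBEC3G DNA deaminase activity, run while confirming APOBEC3A inhibitors.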
Assay [10] deals with T2, Microphthalmia-associated transcription factor (Homo sapiens, UniProt O75030).
T2 sequence (O75030 whole entry): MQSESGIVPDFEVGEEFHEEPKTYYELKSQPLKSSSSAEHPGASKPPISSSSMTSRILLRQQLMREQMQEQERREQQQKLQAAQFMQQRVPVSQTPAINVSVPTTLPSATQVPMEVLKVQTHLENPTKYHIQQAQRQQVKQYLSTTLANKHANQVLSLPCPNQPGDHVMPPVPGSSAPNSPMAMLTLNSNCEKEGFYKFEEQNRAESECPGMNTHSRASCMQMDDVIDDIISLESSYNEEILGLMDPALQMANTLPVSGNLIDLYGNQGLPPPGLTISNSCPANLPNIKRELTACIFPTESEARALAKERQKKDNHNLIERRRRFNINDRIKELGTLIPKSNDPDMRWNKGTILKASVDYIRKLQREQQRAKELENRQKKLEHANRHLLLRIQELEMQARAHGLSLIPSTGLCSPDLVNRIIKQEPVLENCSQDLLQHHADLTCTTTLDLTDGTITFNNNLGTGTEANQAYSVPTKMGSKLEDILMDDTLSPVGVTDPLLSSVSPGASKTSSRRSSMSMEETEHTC
Nature of the assay: TRPM1 promoter luciferase signal decrease, dose response, MITF inhibitor project, cell-based, SK-MEL-5, cherry-picked, set 3 (AID 493073).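 Further: SK-MEL-5 melanoma cells with luciferase driven by the MITF target TRPM1 promoter.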 Format: functional.

The subject of assay [11] is HEK293. Nature of the assay: cytotoxicity in HEK293T NF-kB-Luc cells, SAR follow-up, cytotoxicity control for NF-kB activator project, cell-based, resazurin fluorescence (AID 493251). Format: functional. To be noted: Homo sapiens.
The subject of the next assay is Jurkat. Nature of the assay: SAR Analysis of small molecule inhibitors of T-cell specific antigen receptor-induced NF-kB activation in a Jurkat cell line using a luminescence assay - Set 2. [Related pubchem assays (depositor defined):AID435003, AID435012, AID465]. Type of assay: functional, cell-based. The settings on record: Homo sapiens.
Assay [12] deals with HEK293. Nature of the assay: SAR Analysis of small molecule inhibitors of T-cell specific antigen receptor-induced NF-kB activation in a HEK-293T cell line using a luminescence assay - Set 2. [Related pubchem assays (depositor defined):AID435003, AID435012, AID489026]. Type of assay: functional, cell-based. The settings on record: Homo sapiens.
For assay [13], the target named is T3, Oxysterols receptor LXR-beta (Homo sapiens, UniProt P55055).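 Further: agonist activity at LXR measured by a cell-based luminescence readout across a dose range, run as a counterscreen for daf-12 agonists; HEK293 cells with Gal4-LXR fusion and GAL4-driven luciferase reporter; potency for activation of Gal4-LXR reporter so compounds are agonists.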
T3 sequence (P55055 whole entry): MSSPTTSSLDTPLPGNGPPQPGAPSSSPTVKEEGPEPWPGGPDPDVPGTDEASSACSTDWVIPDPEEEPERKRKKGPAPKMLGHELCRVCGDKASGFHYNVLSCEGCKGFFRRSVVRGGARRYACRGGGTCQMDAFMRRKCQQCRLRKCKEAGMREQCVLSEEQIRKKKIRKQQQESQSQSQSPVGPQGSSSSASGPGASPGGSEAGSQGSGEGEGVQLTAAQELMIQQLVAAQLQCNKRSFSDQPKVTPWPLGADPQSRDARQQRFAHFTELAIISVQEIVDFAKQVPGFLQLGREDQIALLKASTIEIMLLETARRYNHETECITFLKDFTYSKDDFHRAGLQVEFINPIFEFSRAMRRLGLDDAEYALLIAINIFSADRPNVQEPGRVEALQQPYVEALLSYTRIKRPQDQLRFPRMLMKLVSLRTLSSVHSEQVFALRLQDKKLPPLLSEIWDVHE
Type of assay: functional, cell-based.

Sequence of DNA dC->dU-editing enzyme APOBEC-3G (Q9HC16 whole entry): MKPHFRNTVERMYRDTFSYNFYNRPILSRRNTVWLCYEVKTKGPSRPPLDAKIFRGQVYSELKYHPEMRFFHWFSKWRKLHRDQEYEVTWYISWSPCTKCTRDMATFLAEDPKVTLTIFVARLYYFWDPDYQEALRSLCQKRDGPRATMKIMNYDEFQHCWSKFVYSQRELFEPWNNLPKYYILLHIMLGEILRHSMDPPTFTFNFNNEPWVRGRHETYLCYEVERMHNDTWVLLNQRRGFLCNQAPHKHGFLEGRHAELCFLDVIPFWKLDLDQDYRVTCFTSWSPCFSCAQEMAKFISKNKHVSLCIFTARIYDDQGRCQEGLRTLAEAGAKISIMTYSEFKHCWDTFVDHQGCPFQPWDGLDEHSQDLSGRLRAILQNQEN
Sequence of Luciferin 4-monooxygenase (P08659 whole entry): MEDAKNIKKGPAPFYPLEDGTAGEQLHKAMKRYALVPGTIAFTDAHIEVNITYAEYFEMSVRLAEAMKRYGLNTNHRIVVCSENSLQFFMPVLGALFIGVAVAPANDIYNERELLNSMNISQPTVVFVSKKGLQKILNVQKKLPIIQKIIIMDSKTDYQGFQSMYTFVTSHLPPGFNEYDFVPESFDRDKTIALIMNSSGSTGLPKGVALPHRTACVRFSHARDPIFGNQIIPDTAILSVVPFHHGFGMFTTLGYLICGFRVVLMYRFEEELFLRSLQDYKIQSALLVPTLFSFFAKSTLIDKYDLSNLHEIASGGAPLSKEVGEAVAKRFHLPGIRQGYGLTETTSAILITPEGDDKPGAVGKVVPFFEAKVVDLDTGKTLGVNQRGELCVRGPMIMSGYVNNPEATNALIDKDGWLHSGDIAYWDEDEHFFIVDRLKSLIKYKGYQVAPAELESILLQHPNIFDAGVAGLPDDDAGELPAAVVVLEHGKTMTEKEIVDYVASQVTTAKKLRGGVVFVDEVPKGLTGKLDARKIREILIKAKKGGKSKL
Sequence of DNA dC->dU-editing enzyme APOBEC-3A (P31941 whole entry): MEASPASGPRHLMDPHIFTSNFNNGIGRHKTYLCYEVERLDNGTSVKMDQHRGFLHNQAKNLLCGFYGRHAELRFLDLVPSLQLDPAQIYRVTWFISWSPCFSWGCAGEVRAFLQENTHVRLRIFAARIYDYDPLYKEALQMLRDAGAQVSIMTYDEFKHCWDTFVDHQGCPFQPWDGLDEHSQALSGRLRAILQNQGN

On to `Cc1cc2nc(CSc3ccc(Cl)cc3)cc(O)n2n1`, for which the IC50 (in the assay with HEK293 [1]; in assay [2]) was > 67.6 µM (inactive) each time.

As to `O=C(Nc1ncccc1O)c1ccc(S(=O)(=O)Nc2ccccc2)cc1`, the EC50 in [3] was 12.2 µM (active); in [4], 19.9 µM (active); in “cells [5]” it was 23.3 µM (active); in the assay with H4, 22.9 µM (active); in the assay “cells [6]”, > 350 µM (not active). Also, the results for the half-maximal inhibitory concentration (IC50) (with HEK293 [1]; in [2]) were > 0.00338 µM (active) and > 67.6 µM (inactive), respectively.

Consider `CC1=NC(=O)C(N=Nc2cccc(C(=O)O)c2)N1c1ccccc1` (stereo not given), for which the EC50 was 0.67 µM (active) in [7] and > 50 µM (not active) with HT-1080. Further, the figures for the IC50 in [8] and in [9] were 4.74 µM (active) and 6.48 µM (active), respectively. Moreover, in assay [10], the AC50 was 8.62 µM (active).

With `Cc1cc(NC(=O)c2ccc([N+](=O)[O-])o2)cc(-c2nc3ccccc3o2)c1O`, the values for the IC50 in the assay with HEK293 [11], with Jurkat and in the assay on HEK293 [12] were > 80 µM (inactive), 3.42 µM (active) and > 80 µM (inactive), respectively.

Take `Oc1[nH]c2ccccc2c1/C=N/c1ccccc1`: the IC50 (with HEK293 [1]; in assay [2]) was > 67.5 µM (inactive) in each case. In addition, the EC50 in assay [13] is > 67.5 µM (inactive).

The record behind these values is ChEMBL document CHEMBL1201862, “PubChem BioAssay data set” (2004).
